From article PMC8126241, “Active Components from Cassia abbreviata Prevent HIV-1 Entry by Distinct Mechanisms of Action” (International Journal of Molecular Sciences, 2021) come the findings set out here.

Read-outs that look alike come from different tables or passages of the source.

For data set [1], the system named is HIV-1 IIIB. The data set is described as follows: microbe, parasite or virus in culture. The note with it: Human immunodeficiency virus 1, IIIB, PBMC, 168 h, read-out: IC50 IIIB.
For data set [2], the system named is HIV-1 ADA-M. The data set is described as follows: microbe, parasite or virus in culture. To be noted: Human immunodeficiency virus 1, PBMC, 168 h, read-out: IC50 ADA-M.
Data set [3] has as its system non-B HIV-1 primary clinical isolate #1. The data set is described as follows: microbe, parasite or virus in culture. The note with it: Human immunodeficiency virus 1, PBMC, 168 h, read-out: IC50 Clinical isolate #1.
Data set [4] deals with non-B HIV-1 primary clinical isolate #2. Kind of data set: microbe, parasite or virus in culture. To be noted: Human immunodeficiency virus 1, PBMC, 168 h, read-out: IC50 Clinical isolate #2.
Data set [5] deals with HIV-1. The data set is described as follows: microbe, parasite or virus in culture. The class given is cell-based. The note with it: for Anti-HIV activity: piceatannol analogues, pseudotype and MTT assay; for IC50: Human immunodeficiency virus 1, read-out: IC50 anti-HIV-1 activity. The source says:
(§1) Since molecular details of piceatannol interaction with its target(s) are currently not available, we performed a structure-activity relationship (SAR) study with the aim to understand the chemical and pharmacophoric features of piceatannol that are relevant for its anti-HIV activity. Seventeen chemical analogues of piceatannol (molecules 1–17, Figure 6) were designed and retrieved from commercial vendors and from an in-house library of natural products and their derivatives and tested in vitro against HIV-1 entry and HIV-1 infection using the pseudotype and the MTT assay, respectively. […] Besides, the two flavones hispidulin 14 and norartocarpetin 15, and the two styrene derivatives 16 and methyl ferulate 17 were tested.

Data set [6] can be described thus: Cytotoxicity of piceatannol analogues.
Source text: as §1

In data set [7] the test system is HIV-1 fusion. Kind of data set: Fusion assay, HeLa-ENV-Lai with HeLa-P4-CXCR4-LTRLacZ cells. The class given is cell-based. The note with it: Figure 8A. How it is done: Fusion inhibition was evaluated as previously described. Briefly, HeLa-ENV-Lai cells were pre-incubated with or without drugs for 2 h and added to HeLa-P4-CXCR4-LTRLacZ cells which were placed in a 96-well plate 1 day before. After 24 h, cells were washed with PBS and then incubated with 50 μL containing 0.5% NP-40 (Sigma, Belgium) for 15 min at room temperature. Fifty microliters chlorophenol red-β-D-galactopyranoside (CPRG) reagent (Roche, Sigma-Aldrich, Liège, Belgium) was then added into the plate. After 30 min incubation at room temperature in dark, β−galactosidase was assessed by measuring OD562 of the cells via POLARstar Omega plate reader (BMG Labtech, Ortenberg, Germany).

Data set [8] has as its system HIV-1 gp120 / CD4 binding. Kind of data set: CD4-gp120 interaction assay (ELISA). The note with it: in-house ELISA. How it is done:
Human soluble CD4 (sCD4) was immobilized in a 96-well plate by adding 100 ng sCD4 (R&D Systems, Belgium) in 100 μL PBS per well and incubated at 4 °C. After 24 h, the CD4 coated plate was washed with 1% BSA-PBS and blocked by adding 100μL 5% BSA-PBS per well for 1 h at 4 °C. The coated plate was then washed and incubated with or without drugs for 1 h at 4 °C. After washing, 100 ng HIV-1 gp120 protein (Fitzgerald, Acton, MA, USA) was added into the plate and kept for 1 h at 4 °C. The plate was washed, and anti-HIV-1 gp120 (Aalto Bio Reagents, Dublin, Ireland) (100 ng/100 μL PBS) was added. After 1 h, the plate was washed and anti-sheep HRP (Sigma, Belgium) (100 ng/100 μL PBS) was added. After 1 h incubation at 4 °C, 100 μL o-phenylenediamine dihydrochloride (OPD) (Thermo Fisher, Asse, Belgium) was added and incubated for 20 min in dark. One hundred microliters 0.5M H2SO4 was finally added to stop the reaction. OD492 and OD630 were measured by POLARstart Omega Plate Reader. OD492 − OD630 was calculated.

Data set [9] has as its system pseudotype virus pNL4.3ΔEnvLuc-HXB2. The data set is described as follows: microbe, parasite or virus in culture. The note with it: Human immunodeficiency virus 1, HXB2, read-out: IC50 HIV-1 entry.
For data set [10] the test system is unchanged. The note with it: multi-dosing time assay, 2 h after spinoculation (post-infection).
Data set [11] deals with T1, CCR5 (Homo sapiens, UniProt P51681).
T1 construct: host or cells: U373-CD4-CCR5 cells
T1 sequence (P51681 whole entry): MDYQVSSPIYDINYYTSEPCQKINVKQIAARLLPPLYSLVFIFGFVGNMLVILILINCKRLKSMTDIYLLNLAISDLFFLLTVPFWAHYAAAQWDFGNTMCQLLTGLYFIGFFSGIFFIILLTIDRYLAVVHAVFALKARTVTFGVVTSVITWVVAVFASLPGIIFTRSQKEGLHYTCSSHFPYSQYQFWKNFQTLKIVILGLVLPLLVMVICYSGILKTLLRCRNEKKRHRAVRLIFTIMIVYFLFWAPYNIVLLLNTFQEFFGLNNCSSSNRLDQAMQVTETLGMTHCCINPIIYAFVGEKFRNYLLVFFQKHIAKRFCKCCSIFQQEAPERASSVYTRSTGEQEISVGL
The data set is described as follows: Binding competition with anti-CCR5 antibody 2D7. The note with it: anti-CCR5 antibody 2D7, U373-CD4-CCR5 cells. How it is done:
Binding competition between increasing concentrations of compounds and FITC-conjugated mouse anti-human CD4 clone RPA-4 (Biolegend, Amsterdam, Netherlands), PE-conjugated mouse anti-Human CXCR4 clone 12G5, and PE-conjugated mouse anti-human CCR5 clone 2D7 (BD Pharma, Aalst, Belgium) to U373-CD4-CXCR4 and U373-CD4-CCR5 cells was first tested by flow cytometry (FACSCanto). […] After 1 h of incubation at 4 °C, cells were washed with FACS buffer (1% bovine serum albumin, 0.1% N3Na in PBS, Sigma), and Mean Fluorescence Intensity (MFI) was measured. […] Internalization was stopped after 30 min by addition of NaN3 (0.1%) on ice. Cells were stained with anti-human CXCR4 clone 4G10 (BD, Belgium) or anti-human CCR5 (CD195) clone T21/8, (eBioscience, Asse, Belgium), Near-IR fluorescent reactive dye during 1 h at 4 °C, washed with FACS buffer, and a secondary PE-conjugated goat anti-mouse antibody (Jackson ImmunoResearch, West Grove, PA, USA).

Data set [12] relates to HIV-1 IIIB. To be noted: read-out: IC50 IIIB; PBMCs, 7 days, P24 ELISA.
For data set [13], the system named is HIV-1 ADA-M. The note with it: read-out: IC50 ADA-M; PBMCs, 7 days, P24 ELISA.
The subject of data set [14] is non-B HIV-1 primary clinical isolate #1. The note with it: non-B primary clinical isolate #1, 2 h.
Data set [15] concerns non-B HIV-1 primary clinical isolate #2. The note with it: non-B primary clinical isolate #2, 2 h.

For the molecule `Cc1cn([C@H]2C[C@H](N=[N+]=[N-])[C@@H](CO)O2)c(=O)[nH]c1=O` [AZT, azidothymidine], the IC50 was 7.07 nM in [1], 7.31 nM in [2], 6.7 nM in data set [3] and over 1000 nM in data set [4].

As to `COc1cc(/C=C/c2ccc(O)cc2)cc(OC)c1` [Compound 1], the Anti-HIV activity entry in data set [5] is “inactive”.

Turning to `CC(=O)Oc1ccc(/C=C/c2cc(OC(C)=O)cc(OC(C)=O)c2)cc1` [Compound 2], the Anti-HIV activity entry in data set [5] is “inactive”.

For `CC(C)=CCc1c(O)cc(O)c(CC=C(C)C)c1/C=C/c1ccccc1` [Compound 12], in [5], the Anti-HIV activity result was “inactive”.

Regarding `O=c1cc(-c2ccc(O)cc2O)oc2cc(O)cc(O)c12` [Compound 15, norartocarpetin], the IC50 in data set [5] came out at 39000 ± 5000 nM. This molecule also showed a CC50 in [6] of over 500000 nM.

For the molecule `COC(=O)/C=C/c1ccc(O)c(OC)c1` [Compound 17, methyl ferulate], the IC50 in data set [5] worked out at 600000 ± 22000 nM.

Consider `O=C1Nc2ccc(Cl)cc2[C@@](C#CC2CC2)(C(F)(F)F)O1` [EFV, efavirenz], for which the IC50 was 0.1 nM in [1], 0.17 nM in data set [2], over 10 nM in data set [3] and over 10 nM in [4].

Regarding `C[C@@]12OC(=O)C[C@@H]1[C@H]1Oc3c(c(O)cc(O)c3[C@@H]3c4ccc(O)cc4O[C@H](c4ccc(O)cc4)[C@H]3O)C[C@H]1O2` [cassiabrevone], the “Inhibition of viral fusion” value in data set [7] is recorded as “inhibited viral fusion similarly to CE”. Moreover, in data set [8], the “Inhibition of gp120/CD4 binding” value was “inhibited significantly gp120/CD4 binding activity in a dose-dependent manner”. For the same molecule, in data set [9], the IC50 was found to be 31000 nM.

Take `Oc1ccc([C@H]2Oc3cc(O)ccc3[C@@H](c3c(O)cc(O)c4c3O[C@H](c3ccc(O)cc3)[C@H](O)C4)[C@@H]2O)cc1` [guibourtinidol-(4α→8)-epiafzelechin]: the “Inhibition of viral fusion” value in [7] is listed as “inhibited viral fusion similarly to CE”. Also, in [8], the “Inhibition of gp120/CD4 binding” value is on record as “not guibourtinidol-(4α→8)-epiafzelechin”. In data set [9], the IC50 came to 42500 nM.

As for `CC1(C)CC[C@]2(C(=O)O)CC[C@]3(C)C(=CC[C@@H]4[C@@]5(C)CC[C@H](O)C(C)(C)[C@@H]5CC[C@]43C)[C@@H]2C1` [oleanolic acid], the IC50 in data set [9] was 34900 ± 9090 nM.

On to `CCCCCCCCCCCCCCCC(=O)O` [palmitic acid], for which, in [9], the IC50 was 87500 ± 16100 nM.

Take `Cc1nnc(C(=O)NC(C)(C)c2nc(C(=O)NCc3ccc(F)cc3)c(O)c(=O)n2C)o1` [raltegravir, reference compound]: the “Inhibitory effect when added after infection” value in [10] is reported as “inhibited HIV-1 infection”.

On to `O=C1c2c(O)cc(O)cc2OC(c2ccc(O)c(O)c2)C1O` (centres unmarked) [taxifolin], for which, in [9], the IC50 was 240000 ± 3000 nM.

On to “CCL5: chemokine C-C motif chemokine ligand 5, positive control for binding CCR5”, for which, in data set [11], the “Inhibition of CCR5 binding” value is listed as “inhibited”.

Turning to enfuvirtide, the IC50 in data set [12] was 0.64 nM; in [13], 0.67 nM; in [14], 8.25 nM; in data set [15], 1.93 nM.
